US20100204202A1, “DRUG FOR ALLEVIATING MOTOR COMPLICATIONS OR PSYCHIATRIC SYMPTOMS OF PARKINSON'S DISEASE” (Asubio Pharma Co., Ltd., priority 2007, published 2010)
“Also recorded” adds a separate entry of the source. Where a name gives a salt, the structure may show the parent alone. Read-outs that look alike come from different tables or passages of the source.

How the values were obtained:
[1] = biological target: T1, human serotonin 1A receptors (Homo sapiens, UniProt P08908); assay: Agonist/antagonist assay, [35S]GTPgammaS binding, human serotonin 1A receptors; format: biochemical; conditions: for EC50 / Emax / IC50: Serotonin 1A; for agonist activity (in words): human serotonin 1A receptors
T1 construct: expressed in transfected cells; host or cells: CHO-K1
T1 sequence (P08908 1-422): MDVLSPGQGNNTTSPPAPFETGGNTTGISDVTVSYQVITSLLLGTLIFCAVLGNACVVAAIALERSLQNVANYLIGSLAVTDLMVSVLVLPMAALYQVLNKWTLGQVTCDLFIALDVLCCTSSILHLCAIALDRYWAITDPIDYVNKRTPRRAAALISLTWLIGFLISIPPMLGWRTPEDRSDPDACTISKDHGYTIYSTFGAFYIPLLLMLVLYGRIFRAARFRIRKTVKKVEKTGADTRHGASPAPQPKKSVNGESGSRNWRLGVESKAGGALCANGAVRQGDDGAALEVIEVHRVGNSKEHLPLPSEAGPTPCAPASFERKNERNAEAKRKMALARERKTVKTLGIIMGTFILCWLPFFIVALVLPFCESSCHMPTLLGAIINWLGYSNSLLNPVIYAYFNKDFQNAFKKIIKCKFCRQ
Procedure: For the tests, membrane specimens prepared from Chinese hamster ovary (CHO-K1) cells expressing human serotonin 1A receptors, Chinese hamster ovary (CHO) cells expressing human dopamine D2L receptors, Chinese hamster ovary (CHO) cells expressing human dopamine D2S receptors and Chinese hamster ovary (CHO) cells expressing human dopamine D3 receptors were used. In the agonist assays, for the serotonin 1A receptors, [^35S] GTPγS (final concentration 0.1 nM), a GDP solution (final concentration 3 μM), the test sample solution and a membrane specimen were added to a 20 mM Hepes-NaOH buffer (pH 7.4) containing 100 mM NaCl, 3 mM MgCl2 and 10 μg/mL saponin and allowed to react at 25° C. for 30 minutes. Further, for the dopamine (D2L, D2S and D3) receptors, [^35S] GTPγS (i.e., final concentration 0.1 nM), a GDP solution (final concentration 3 μM), the test sample solution and a membrane specimen were added to a 20 mM Hepes-NaOH buffer (pH 7.4) containing 100 mM NaCl, 10 mM MgCl2, 1 mM DTT and 1 mM EDTA and allowed to react at 30° C. for 15 minutes (in the case of D2L receptors) or for 30 minutes (in the cases of D2S and D3 receptors). Further, in the antagonist assays, except for adding to the reaction solutions 10 μM 5-carboxamide tryptamine (5-CT) (in the case of serotonin 1A receptors), 3 μM dopamine (in the cases of D2L and D2S receptors), or 0.1 μM dopamine (in the case of D3 receptors), operations were performed similar to the agonistic tests. After the end of the reaction, the reaction solution was filtered with a cell harvester, the filtered filter paper was transferred to a measurement vial, a liquid scintillator was added, and the radioactivity of the [^35S] GTPγS remaining on the filter paper was determined by a liquid scintillation counter. The human serotonin 1A receptor and human dopamine (D2L, D2S, and D3) receptor agonist/antagonist activities of the test sample were expressed as the rates of increase, when making the increase in [^35S] GTPγS bonds due to 10 μM 5-CT (in the case of serotonin 1A receptors), 3 μM dopamine (in the cases of D2L and D2S receptors), or 0.1 μM dopamine (in the case of D3 receptors) 100%. From the bond increasing rate, a regression formula was used to calculate the 50% reaction concentration (EC50) and 50% inhibition concentration (IC50).

[2] = biological target: T2, rat serotonin 1A receptors (Rattus norvegicus, UniProt P19327); assay: Adenylate cyclase inhibition test via rat serotonin 1A receptors (full agonist-partial agonist judgment test), rat hippocampus membranes; format: biochemical
T2 construct: Each rat was decapitated and the hippocampus was quickly removed; from tissue; host or cells: hippocampus of male Wistar rats
T2 sequence (P19327 1-422): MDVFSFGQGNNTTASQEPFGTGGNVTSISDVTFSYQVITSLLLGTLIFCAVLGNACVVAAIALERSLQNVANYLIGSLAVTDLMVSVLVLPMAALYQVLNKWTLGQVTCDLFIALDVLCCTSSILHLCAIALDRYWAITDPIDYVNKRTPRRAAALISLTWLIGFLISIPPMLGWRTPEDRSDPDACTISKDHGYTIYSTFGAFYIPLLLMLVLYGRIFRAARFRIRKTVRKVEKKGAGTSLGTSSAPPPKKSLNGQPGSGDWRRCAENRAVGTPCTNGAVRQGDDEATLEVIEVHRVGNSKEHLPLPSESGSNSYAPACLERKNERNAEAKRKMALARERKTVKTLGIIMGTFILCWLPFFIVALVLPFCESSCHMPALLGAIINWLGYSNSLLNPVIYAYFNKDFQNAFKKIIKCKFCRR
Procedure: For the test, Wistar male rats supplied by Shimizu Laboratory Supplies were used (9 to 15 weeks old). Each rat was decapitated and the hippocampus was quickly removed. It was homogenized in 10 volumes of buffer (i.e., 25 mM Tris-HCl, 1 mM EGTA, 5 mM EDTA, 5 mM DTT, 300 mM sucrose, 100 KIU/ml aprotinin, pH 7.4). This was then centrifuged at 500×g, 4° C. for 5 minutes, the supernatant was further centrifuged at 39,000×g, 4° C. for 10 minutes, and the residue was used as the rat hippocampus membrane specimen. The rat hippocampus membrane specimen was diluted by a buffer to 20 to 90 μg/mL of protein, then 50 μL of this cell membrane suspension was added to a 200 μL assay buffer containing each test sample (25 mM Tris-HCl, 100 mM NaCl, 2 mM MgCl2. 0.25 mM ATP, 5 mM phosphocreatine, 10 μg/mL creatine phosphokinase, 0.2 mM IBMX, 10 μM GTP, 10 μM forskolin, pH 7.4) and allowed to react at 30° C. for 5 minutes. 0.2N HCl was added in 250 μL to stop the reaction, then the cAMP produced was assayed by the radioimmunoassay method. […] Note that the adenylate cyclase activity was measured using as an indicator the amount of cAMP produced by the same enzyme. The rate of inhibition by the serotonin 1A receptor agonist was found using the amount of production due to forskolin (10 μM) stimulus as 100%.

[3] = Rate of biological utilization of SUN N4057 in rats; format: in vivo, rat
Procedure: Note that the rate of biological utilization of SUN N4057 in the rats, with subcutaneous administration, was a good one of about 100%, but with intraperitoneal administration, was a low one of about 27%. Further, it became clear that this quickly was consumed peaking at 15 minutes after administration. For this reason, in intraperitoneal administration, a higher dosage was set than with subcutaneous administration.

[4] = 10 μM 5-CT = 100%, read-out: Agonist assay Emax
[5] = with 10 μM 5-CT, read-out: Antagonist assay Emax

Row | SMILES | EC50 [1] | Emax [1, 4] | IC50 ([1]; with 10 μM 5-CT) | Emax [1, 5] | agonist activity (in words) [1] | IC50 ([2]; forskolin (10 μM) stimulated, rat hippocampus membranes, read-out: IC50 of adenylate cyclase inhibition (for the maximum reaction)) | inhibition ([2]; forskolin (10 μM) stimulus = 100%, rat hippocampus membranes, read-out: maximum inhibitory reaction of adenylate cyclase activity) | full agonist-partial agonist judgment ([2]; serotonin 1A receptors of the serotonin nerve post-synapse membrane) | rate of biological utilization ([3]; intraperitoneal administration) | time of peak after administration ([3]; intraperitoneal administration) | rate of biological utilization ([3]; subcutaneous administration)
1 | Cl.Cl.O=c1[nH]c2cccc(C3CCCN(Cc4cncc(-c5ccc(F)cc5)c4)C3)c2o1 (centres unmarked) [7-(1-{[5-(4-fluorophenyl)pyridin-3-yl]methyl}piperidin-3-yl)-1,3-benzoxazol-2(3H)-one dihydrochloride] | 108 nM | 100% | > 20000 nM | 14% |  |  |  |  |  |  | 
2 | O=C1c2ccccc2OC=C(Cl)N1CCCCN1CC=C(c2ccccn2)CC1 [SUN N4057, 3-chloro-4,5-dihydro-4-{4-[4-(2-pyridyl)-1,2,3,6-tetrahydropyridin-1-yl]butyl}-1,4-benzoxazepin-5-one.dihydrochloride-dihydrate] | 2.41 nM | 100% | > 100 nM | 3% | particularly strong in activity; also recorded: powerful agonist action | 2.67 nM | 20% | partial agonist | about 27% | 15 min | about 100%
3 | Cl.Cl.Fc1ccc(-c2cncc(CNC[C@H]3CCc4ccccc4O3)c2)cc1 [Sarizotan, 1-[(2R)-3,4-dihydro-2H-chromen-2-yl]-N-{[5-(4-fluorophenyl)pyridin-3-yl]methyl}methanamine dihydrochloride] | 2.4 nM | 100% | > 100 nM | 4% | particularly strong in activity |  |  |  |  |  | 
